Test results as given in PMC5392334, “Discovery and characterization of a novel irreversible EGFR mutants selective and potent kinase inhibitor CHMFL-EGFR-26 with a distinct binding mode” (Oncotarget, 2017).

What was measured:
Test in all cases: KinomeScan
Format in all cases: binding
Settings in all cases: read-out: % control
[1] = molecular target: T1, ABL1-nonphosphorylated (Homo sapiens, UniProt P00519)
T1 construct: purchased DiscoveRx KINOMEscan

[2] = molecular target: T2, EGFR(L861Q) (Homo sapiens, UniProt P00533, L861Q)
T2 construct: purchased DiscoveRx KINOMEscan

[3] = molecular target: T3, DDR1 (Homo sapiens, UniProt Q08345)
T3 construct: purchased DiscoveRx KINOMEscan

[4] = molecular target: T4, ABL1(T315I)-nonphosphorylated (Homo sapiens, UniProt P00519, T315I)
T4 construct: purchased DiscoveRx KINOMEscan

[5] = molecular target: T5, RET(V804L) (Homo sapiens, UniProt P07949, V804L)
T5 construct: purchased DiscoveRx KINOMEscan

[6] = molecular target: T6, DYRK1B (Homo sapiens, UniProt Q9Y463)
T6 construct: purchased DiscoveRx KINOMEscan

[7] = molecular target: T7, PDGFRA (Homo sapiens, UniProt P16234)
T7 construct: purchased DiscoveRx KINOMEscan

[8] = molecular target: T8, MST4 (Homo sapiens, UniProt Q9P289)
T8 construct: purchased DiscoveRx KINOMEscan

[9] = molecular target: T9, TNIK (Homo sapiens, UniProt Q9UKE5)
T9 construct: purchased DiscoveRx KINOMEscan

[10] = molecular target: T10, ASK2 (Homo sapiens, UniProt O95382)
T10 construct: purchased DiscoveRx KINOMEscan

[11] = molecular target: T11, CSNK1D (Homo sapiens, UniProt P48730)
T11 construct: purchased DiscoveRx KINOMEscan

[12] = molecular target: T12, YSK4 (Homo sapiens, UniProt Q56UN5)
T12 construct: purchased DiscoveRx KINOMEscan

[13] = molecular target: T13, PIM2 (Homo sapiens, UniProt Q9P1W9)
T13 construct: purchased DiscoveRx KINOMEscan

[14] = molecular target: T14, IGF1R (Homo sapiens, UniProt P08069)
T14 construct: purchased DiscoveRx KINOMEscan
T14 sequence (P08069 31-1367): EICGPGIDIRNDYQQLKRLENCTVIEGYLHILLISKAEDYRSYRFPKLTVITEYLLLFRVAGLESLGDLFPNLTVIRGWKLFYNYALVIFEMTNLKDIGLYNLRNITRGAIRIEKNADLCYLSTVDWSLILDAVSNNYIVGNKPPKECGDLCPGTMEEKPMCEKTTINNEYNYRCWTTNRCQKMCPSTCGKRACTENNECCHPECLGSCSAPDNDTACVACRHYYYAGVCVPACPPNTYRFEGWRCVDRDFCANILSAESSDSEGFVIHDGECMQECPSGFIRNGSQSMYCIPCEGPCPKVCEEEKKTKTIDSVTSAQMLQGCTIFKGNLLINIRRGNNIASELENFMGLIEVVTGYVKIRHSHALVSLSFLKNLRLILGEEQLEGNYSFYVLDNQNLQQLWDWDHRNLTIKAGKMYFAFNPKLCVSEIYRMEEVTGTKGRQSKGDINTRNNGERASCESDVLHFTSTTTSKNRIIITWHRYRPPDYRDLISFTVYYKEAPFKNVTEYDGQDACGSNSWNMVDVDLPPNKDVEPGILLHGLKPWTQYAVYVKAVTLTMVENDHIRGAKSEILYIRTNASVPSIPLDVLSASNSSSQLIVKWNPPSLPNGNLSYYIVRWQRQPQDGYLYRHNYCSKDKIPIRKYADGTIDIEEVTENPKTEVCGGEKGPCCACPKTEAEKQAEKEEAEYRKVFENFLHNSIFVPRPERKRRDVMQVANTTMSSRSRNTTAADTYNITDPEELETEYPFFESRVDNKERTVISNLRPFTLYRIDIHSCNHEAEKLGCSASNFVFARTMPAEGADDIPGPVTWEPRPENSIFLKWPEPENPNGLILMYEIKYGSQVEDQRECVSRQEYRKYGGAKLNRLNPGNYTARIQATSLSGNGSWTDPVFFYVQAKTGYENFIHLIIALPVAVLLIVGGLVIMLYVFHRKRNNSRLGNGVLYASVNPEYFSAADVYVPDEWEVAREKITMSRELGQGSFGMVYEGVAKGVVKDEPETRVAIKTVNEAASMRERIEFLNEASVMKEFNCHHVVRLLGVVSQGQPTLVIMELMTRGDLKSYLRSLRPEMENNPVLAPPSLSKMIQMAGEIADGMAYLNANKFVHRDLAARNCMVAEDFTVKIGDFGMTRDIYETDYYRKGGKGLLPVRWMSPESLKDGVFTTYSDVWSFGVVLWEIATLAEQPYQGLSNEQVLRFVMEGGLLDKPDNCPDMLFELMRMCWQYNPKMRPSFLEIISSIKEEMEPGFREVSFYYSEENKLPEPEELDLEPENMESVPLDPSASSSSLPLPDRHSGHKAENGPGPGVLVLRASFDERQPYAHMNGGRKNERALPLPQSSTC

[15] = molecular target: T15, ERK5 (Homo sapiens, UniProt Q13164)
T15 construct: purchased DiscoveRx KINOMEscan

[16] = molecular target: T16, ABL1-phosphorylated (Homo sapiens, UniProt P00519)
T16 construct: purchased DiscoveRx KINOMEscan

[17] = molecular target: T17, ULK2 (Homo sapiens, UniProt Q8IYT8)
T17 construct: purchased DiscoveRx KINOMEscan

[18] = molecular target: T18, MRCKB (Homo sapiens, UniProt Q9Y5S2)
T18 construct: purchased DiscoveRx KINOMEscan

[19] = molecular target: T19, TRKA (Homo sapiens, UniProt P04629)
T19 construct: purchased DiscoveRx KINOMEscan

[20] = molecular target: T20, ABL1(E255K)-phosphorylated (Homo sapiens, UniProt P00519, E255K)
T20 construct: purchased DiscoveRx KINOMEscan

[21] = molecular target: T21, LATS1 (Homo sapiens, UniProt O95835)
T21 construct: purchased DiscoveRx KINOMEscan

[22] = molecular target: T22, ABL2 (Homo sapiens, UniProt P42684)
T22 construct: purchased DiscoveRx KINOMEscan

[23] = molecular target: T23, ZAP70 (Homo sapiens, UniProt P43403)
T23 construct: purchased DiscoveRx KINOMEscan

[24] = molecular target: T24, CDK5 (Homo sapiens, UniProt Q00535)
T24 construct: purchased DiscoveRx KINOMEscan

[25] = molecular target: T25, TESK1 (Homo sapiens, UniProt Q15569)
T25 construct: purchased DiscoveRx KINOMEscan

[26] = molecular target: T26, KIT(V559D) (Homo sapiens, UniProt P10721, V559D)
T26 construct: purchased DiscoveRx KINOMEscan

[27] = molecular target: T27, EPHA8 (Homo sapiens, UniProt P29322)
T27 construct: purchased DiscoveRx KINOMEscan

[28] = molecular target: T28, LOK (Homo sapiens, UniProt O94804)
T28 construct: purchased DiscoveRx KINOMEscan

[29] = molecular target: T29, NDR2 (Homo sapiens, UniProt Q9Y2H1)
T29 construct: purchased DiscoveRx KINOMEscan

[30] = molecular target: T30, ABL1(F317L)-phosphorylated (Homo sapiens, UniProt P00519, F317L)
T30 construct: purchased DiscoveRx KINOMEscan

[31] = molecular target: T31, MAP3K1 (Homo sapiens, UniProt Q13233)
T31 construct: purchased DiscoveRx KINOMEscan
T31 sequence (Q13233 whole entry): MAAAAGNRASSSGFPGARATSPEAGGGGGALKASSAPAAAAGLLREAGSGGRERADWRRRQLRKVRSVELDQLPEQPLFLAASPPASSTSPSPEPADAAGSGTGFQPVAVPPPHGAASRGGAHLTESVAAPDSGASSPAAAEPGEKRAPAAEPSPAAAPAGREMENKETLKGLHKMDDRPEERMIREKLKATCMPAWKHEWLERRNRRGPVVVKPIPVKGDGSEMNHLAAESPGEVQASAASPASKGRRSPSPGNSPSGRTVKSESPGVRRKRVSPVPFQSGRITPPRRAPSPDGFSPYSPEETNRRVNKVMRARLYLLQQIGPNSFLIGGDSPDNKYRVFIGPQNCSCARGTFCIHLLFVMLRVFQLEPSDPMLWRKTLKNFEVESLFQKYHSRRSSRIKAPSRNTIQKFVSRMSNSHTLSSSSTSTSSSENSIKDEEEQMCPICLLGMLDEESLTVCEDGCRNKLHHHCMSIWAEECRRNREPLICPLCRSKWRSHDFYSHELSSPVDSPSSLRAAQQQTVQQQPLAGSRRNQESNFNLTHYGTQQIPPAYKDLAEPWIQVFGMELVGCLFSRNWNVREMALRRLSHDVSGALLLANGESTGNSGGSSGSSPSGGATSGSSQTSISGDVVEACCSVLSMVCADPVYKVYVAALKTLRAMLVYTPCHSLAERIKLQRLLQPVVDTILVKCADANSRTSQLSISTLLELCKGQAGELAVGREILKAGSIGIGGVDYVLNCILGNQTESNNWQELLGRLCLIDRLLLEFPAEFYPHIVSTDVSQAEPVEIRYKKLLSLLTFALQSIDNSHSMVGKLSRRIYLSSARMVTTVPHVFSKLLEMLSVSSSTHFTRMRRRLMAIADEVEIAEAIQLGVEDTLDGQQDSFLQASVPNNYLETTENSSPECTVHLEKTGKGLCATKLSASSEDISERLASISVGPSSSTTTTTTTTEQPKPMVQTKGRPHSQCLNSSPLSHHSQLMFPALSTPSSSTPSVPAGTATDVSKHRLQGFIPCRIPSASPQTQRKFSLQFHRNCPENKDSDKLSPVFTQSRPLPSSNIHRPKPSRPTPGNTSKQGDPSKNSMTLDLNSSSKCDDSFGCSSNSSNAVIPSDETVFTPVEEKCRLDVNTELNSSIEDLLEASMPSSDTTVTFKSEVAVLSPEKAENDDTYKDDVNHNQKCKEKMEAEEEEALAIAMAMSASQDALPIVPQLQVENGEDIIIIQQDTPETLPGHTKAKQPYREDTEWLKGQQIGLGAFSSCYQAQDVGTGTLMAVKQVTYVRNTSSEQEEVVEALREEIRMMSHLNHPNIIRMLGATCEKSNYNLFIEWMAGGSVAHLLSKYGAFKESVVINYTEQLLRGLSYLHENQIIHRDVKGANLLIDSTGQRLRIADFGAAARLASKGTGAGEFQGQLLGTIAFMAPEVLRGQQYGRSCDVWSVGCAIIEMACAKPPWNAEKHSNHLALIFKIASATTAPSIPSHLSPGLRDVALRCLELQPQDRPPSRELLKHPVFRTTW

[32] = molecular target: T32, CSNK1G1 (Homo sapiens, UniProt Q9HCP0)
T32 construct: purchased DiscoveRx KINOMEscan

[33] = molecular target: T33, LATS2 (Homo sapiens, UniProt Q9NRM7)
T33 construct: purchased DiscoveRx KINOMEscan
T33 sequence (Q9NRM7 whole entry): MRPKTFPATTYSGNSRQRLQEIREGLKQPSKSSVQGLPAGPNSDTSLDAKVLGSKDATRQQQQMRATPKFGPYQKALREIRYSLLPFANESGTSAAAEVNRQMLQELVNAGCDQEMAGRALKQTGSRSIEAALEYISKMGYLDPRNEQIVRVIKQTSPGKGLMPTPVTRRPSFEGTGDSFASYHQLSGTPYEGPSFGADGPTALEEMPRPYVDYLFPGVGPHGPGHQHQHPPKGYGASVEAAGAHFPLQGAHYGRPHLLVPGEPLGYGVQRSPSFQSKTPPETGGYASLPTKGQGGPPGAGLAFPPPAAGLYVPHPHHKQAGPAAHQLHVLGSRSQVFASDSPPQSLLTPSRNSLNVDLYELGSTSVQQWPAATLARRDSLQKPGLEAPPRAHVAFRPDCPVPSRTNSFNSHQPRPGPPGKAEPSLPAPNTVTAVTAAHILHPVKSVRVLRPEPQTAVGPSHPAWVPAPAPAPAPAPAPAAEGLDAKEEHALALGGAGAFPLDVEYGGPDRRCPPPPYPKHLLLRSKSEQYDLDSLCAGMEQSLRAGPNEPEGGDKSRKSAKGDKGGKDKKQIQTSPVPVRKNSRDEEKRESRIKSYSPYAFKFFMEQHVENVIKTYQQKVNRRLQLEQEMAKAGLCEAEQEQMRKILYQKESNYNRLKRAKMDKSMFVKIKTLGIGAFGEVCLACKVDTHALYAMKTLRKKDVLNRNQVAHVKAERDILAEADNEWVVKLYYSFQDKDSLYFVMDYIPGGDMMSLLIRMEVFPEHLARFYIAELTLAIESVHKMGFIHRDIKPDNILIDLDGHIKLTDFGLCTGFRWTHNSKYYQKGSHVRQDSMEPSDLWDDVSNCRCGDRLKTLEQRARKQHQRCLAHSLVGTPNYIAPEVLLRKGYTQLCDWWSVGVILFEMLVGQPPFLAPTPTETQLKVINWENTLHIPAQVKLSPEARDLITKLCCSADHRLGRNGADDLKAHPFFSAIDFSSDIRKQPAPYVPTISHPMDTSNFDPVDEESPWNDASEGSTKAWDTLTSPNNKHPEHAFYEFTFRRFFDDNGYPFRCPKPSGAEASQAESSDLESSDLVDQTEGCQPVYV

[34] = molecular target: T34, CSK (Homo sapiens, UniProt P41240)
T34 construct: purchased DiscoveRx KINOMEscan

[35] = molecular target: T35, FLT3(K663Q) (Homo sapiens, UniProt P36888, K663Q)
T35 construct: purchased DiscoveRx KINOMEscan

[36] = molecular target: T36, KIT (Homo sapiens, UniProt P10721)
T36 construct: purchased DiscoveRx KINOMEscan

[37] = molecular target: T37, CDKL2 (Homo sapiens, UniProt Q92772)
T37 construct: purchased DiscoveRx KINOMEscan
T37 sequence (Q92772 whole entry): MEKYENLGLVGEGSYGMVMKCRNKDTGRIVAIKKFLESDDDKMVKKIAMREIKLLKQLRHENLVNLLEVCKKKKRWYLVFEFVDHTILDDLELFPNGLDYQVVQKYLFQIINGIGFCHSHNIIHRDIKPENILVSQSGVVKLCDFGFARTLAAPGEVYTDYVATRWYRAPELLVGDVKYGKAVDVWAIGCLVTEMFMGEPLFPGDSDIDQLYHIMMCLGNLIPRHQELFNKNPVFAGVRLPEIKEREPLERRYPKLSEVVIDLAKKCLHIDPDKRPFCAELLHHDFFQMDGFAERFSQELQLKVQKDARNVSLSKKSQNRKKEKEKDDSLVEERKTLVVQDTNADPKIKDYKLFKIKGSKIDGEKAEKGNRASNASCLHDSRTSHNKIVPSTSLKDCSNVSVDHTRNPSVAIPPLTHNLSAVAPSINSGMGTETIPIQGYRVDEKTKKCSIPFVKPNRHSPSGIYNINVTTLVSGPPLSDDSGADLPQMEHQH

[38] = molecular target: T38, RIPK1 (Homo sapiens, UniProt Q13546)
T38 construct: purchased DiscoveRx KINOMEscan
T38 sequence (Q13546 whole entry): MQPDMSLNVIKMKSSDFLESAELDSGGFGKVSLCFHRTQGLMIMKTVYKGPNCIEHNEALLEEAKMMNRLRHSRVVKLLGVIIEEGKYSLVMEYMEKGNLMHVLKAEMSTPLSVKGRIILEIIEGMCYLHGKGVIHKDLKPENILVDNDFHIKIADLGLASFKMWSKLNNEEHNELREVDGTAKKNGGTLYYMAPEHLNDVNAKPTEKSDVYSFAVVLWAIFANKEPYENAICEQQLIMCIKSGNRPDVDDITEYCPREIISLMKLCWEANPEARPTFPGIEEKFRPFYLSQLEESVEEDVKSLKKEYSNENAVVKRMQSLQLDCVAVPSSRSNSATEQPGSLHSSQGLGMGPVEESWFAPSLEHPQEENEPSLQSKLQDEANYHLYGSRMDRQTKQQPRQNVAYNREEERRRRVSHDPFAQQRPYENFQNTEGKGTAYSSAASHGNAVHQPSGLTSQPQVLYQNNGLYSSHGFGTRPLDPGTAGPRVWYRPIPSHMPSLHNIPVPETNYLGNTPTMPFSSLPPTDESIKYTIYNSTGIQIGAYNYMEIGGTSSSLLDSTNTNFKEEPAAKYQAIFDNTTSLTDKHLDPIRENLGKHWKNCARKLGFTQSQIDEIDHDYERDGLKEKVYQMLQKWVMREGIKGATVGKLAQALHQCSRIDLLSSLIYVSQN

[39] = molecular target: T39, MLK3 (Homo sapiens, UniProt Q16584)
T39 construct: purchased DiscoveRx KINOMEscan

[40] = molecular target: T40, SNARK (Homo sapiens, UniProt Q9H093)
T40 construct: purchased DiscoveRx KINOMEscan

[41] = molecular target: T41, BRAF(V600E) (Homo sapiens, UniProt P15056, V600E)
T41 construct: purchased DiscoveRx KINOMEscan

[42] = molecular target: T42, PIK3C2G (Homo sapiens, UniProt O75747)
T42 construct: purchased DiscoveRx KINOMEscan

[43] = molecular target: T43, MST1 (Homo sapiens, UniProt Q13043)
T43 construct: purchased DiscoveRx KINOMEscan

C=CC(=O)N1CCC[C@@H](n2nc(-c3ccc(OCc4cccc(C)n4)c(Cl)c3)c3c(N)ncnc32)C1 [CHMFL-EGFR-26]
remaining binding at 1 µM [1]: 87% | remaining binding at 1 µM [2]: 0.9% | remaining binding at 1 µM [3]: 85% | remaining binding at 1 µM [4]: 100% | remaining binding at 1 µM [5]: 100% | remaining binding at 1 µM [6]: 85% | remaining binding at 1 µM [7]: 100% | remaining binding at 1 µM [8]: 99% | remaining binding at 1 µM [9]: 11% | remaining binding at 1 µM [10]: 68% | remaining binding at 1 µM [11]: 95% | remaining binding at 1 µM [12]: 67% | remaining binding at 1 µM [13]: 100% | remaining binding at 1 µM [14]: 100% | remaining binding at 1 µM [15]: 100% | remaining binding at 1 µM [16]: 81% | remaining binding at 1 µM [17]: 97% | remaining binding at 1 µM [18]: 80% | remaining binding at 1 µM [19]: 55% | remaining binding at 1 µM [20]: 98% | remaining binding at 1 µM [21]: 82% | remaining binding at 1 µM [22]: 99% | remaining binding at 1 µM [23]: 100% | remaining binding at 1 µM [24]: 100% | remaining binding at 1 µM [25]: 93% | remaining binding at 1 µM [26]: 100% | remaining binding at 1 µM [27]: 89% | remaining binding at 1 µM [28]: 0.2% | remaining binding at 1 µM [29]: 100% | remaining binding at 1 µM [30]: 95% | remaining binding at 1 µM [31]: 82% | remaining binding at 1 µM [32]: 87% | remaining binding at 1 µM [33]: 96% | remaining binding at 1 µM [34]: 32% | remaining binding at 1 µM [35]: 97% | remaining binding at 1 µM [36]: 100% | remaining binding at 1 µM [37]: 100% | remaining binding at 1 µM [38]: 100% | remaining binding at 1 µM [39]: 100% | remaining binding at 1 µM [40]: 25% | remaining binding at 1 µM [41]: 62% | remaining binding at 1 µM [42]: 100% | remaining binding at 1 µM [43]: 61%
